# According to US20080039455A1, “PYRAZOLOPYRIMIDINES AND SALTS THEREOF, PHARMACEUTICAL COMPOSITIONS COMPRISING SAME, METHODS OF PREPARING SAME AND USES OF SAME” (priority 2006, published 2008):
# Molecular target: T1, human recombinant ALK1 (GST fused to ALK1 intracellular domain [His142-Gln503]) (Homo sapiens, UniProt P37023)
# T1 construct: GST fused to ALK1 intracellular domain [His142-Gln503]; made in house
# T1 sequence (P37023 142-503): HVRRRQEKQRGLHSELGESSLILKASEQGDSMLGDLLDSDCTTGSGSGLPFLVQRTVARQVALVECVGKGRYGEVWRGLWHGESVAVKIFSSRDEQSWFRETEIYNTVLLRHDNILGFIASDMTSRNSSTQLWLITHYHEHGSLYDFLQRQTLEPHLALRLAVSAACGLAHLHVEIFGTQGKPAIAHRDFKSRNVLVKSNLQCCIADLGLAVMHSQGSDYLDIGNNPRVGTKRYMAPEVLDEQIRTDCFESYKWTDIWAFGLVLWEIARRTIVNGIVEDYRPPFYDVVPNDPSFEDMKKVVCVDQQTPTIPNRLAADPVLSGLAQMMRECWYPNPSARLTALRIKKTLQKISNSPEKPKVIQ
# Assay: ALK1-Kinase Flashplate-Assay
# Format: biochemical
# Conditions: 0.5 μM ATP, biotinylated α-casein substrate; read-out: Assay 1 (ALK1-Kinase Flashplate-Assay IC50 class)
# Method in brief: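 Radiometric Flashplate assay at 20 °C: GST-ALK1 intracellular domain (5 ng/well) with 1 μM biotinylated bovine α-casein, 0.5 μM ATP plus [γ-33P]ATP in Tris pH 8.0, 1 mM MnCl2, 1% or 5% DMSO, 60 min. Normalised to no-inhibitor (0%) and 10 mM EDTA (100%); IC50 by 4-parameter fit.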
row,IC50 [nM],SMILES
1,1000 to 10000,"CC(=O)c1cccc(-c2cnn3ccc(NCc4ccncc4)nc23)c1 [Example 216, 1-(3-{5-[(Pyridin-4-ylmethyl)-amino]-pyrazolo[1,5-a]pyrimidin-3-yl}-phenyl)-ethanone]"
2,1000 to 10000,"c1cc(CNc2ccn3ncc(-c4cn[nH]c4)c3n2)ccn1 [Example 218, [3-(1H-Pyrazol-4-yl)-pyrazolo[1,5-a]pyrimidin-5-yl]-pyridin-4-ylmethyl-amine]"
3,1000 to 10000,"c1ccc(Cn2cc(-c3cnn4ccc(NCc5ccncc5)nc34)cn2)cc1 [Example 219, [3-(1-Benzyl-1H-pyrazol-4-yl)-pyrazolo[1,5-a]pyrimidin-5-yl]-pyridin-4-ylmethyl-amine]"
4,1000 to 10000,"NC(=O)c1cccc(-c2cnn3ccc(NC4CCC(O)CC4)nc23)c1 (stereo not shown) [Example 220, 3-[5-(4-Hydroxy-cyclohexylamino)-pyrazolo[1,5-a]pyrimidin-3-yl]-benzamide]"
5,1000 to 10000,"Cn1cc(-c2cnn3ccc(NC4CCC(O)CC4)nc23)cn1 (stereo not shown) [Example 221, 4-[3-(1-Methyl-1H-pyrazol-4-yl)-pyrazolo[1,5-a]pyrimidin-5-ylamino]-cyclohexanol]"
6,1000 to 10000,"NC(=O)c1cccc(-c2cnn3ccc(NCc4cccnc4)nc23)c1 [Example 223, 3-{5-[(Pyridin-3-ylmethyl)-amino]-pyrazolo[1,5-a]pyrimidin-3-yl}-benzamide]"
7,1000 to 10000,"CC(=O)c1cccc(-c2cnn3ccc(NCc4cccnc4)nc23)c1 [Example 227, 1-(3-{5-[(Pyridin-3-ylmethyl)-amino]-pyrazolo[1,5-a]pyrimidin-3-yl}-phenyl)-ethanone]"
8,1000 to 10000,"Cn1cc(-c2cnn3ccc(NCc4cccnc4)nc23)cn1 [Example 230, [3-(1-Methyl-1H-pyrazol-4-yl)-pyrazolo[1,5-a]pyrimidin-5-yl]-pyridin-3-ylmethyl-amine]"
9,< 1000,"NC(=O)c1cccc(-c2cnn3ccc(Nc4ccc(N5CCOCC5)cc4)nc23)c1 [Example 232, 3-[5-(4-Morpholin-4-yl-phenylamino)-pyrazolo[1,5-a]pyrimidin-3-yl]-benzamide]"
10,1000 to 10000,"COc1cccc(-c2cnn3ccc(Nc4ccc(N5CCOCC5)cc4)nc23)c1 [Example 233, [3-(3-Methoxy-phenyl)-pyrazolo[1,5-a]pyrimidin-5-yl]-(4-morpholin-4-yl-phenyl)-amine]"
11,1000 to 10000,"c1csc(-c2cnn3ccc(Nc4ccc(N5CCOCC5)cc4)nc23)c1 [Example 234, (4-Morpholin-4-yl-phenyl)-(3-thiophen-2-yl-pyrazolo[1,5-a]pyrimidin-5-yl)-amine]"
12,1000 to 10000,"Cn1cc(-c2cnn3ccc(Nc4ccc(N5CCOCC5)cc4)nc23)cn1 [Example 235, [3-(1-Methyl-1H-pyrazol-4-yl)-pyrazolo[1,5-a]pyrimidin-5-yl]-(4-morpholin-4-yl-phenyl)-amine]"
13,1000 to 10000,"COc1cccc(-c2cnn3ccc(Nc4ccccc4)nc23)c1 [Example 241, [3-(3-Methoxy-phenyl)-pyrazolo[1,5-a]pyrimidin-5-yl]-phenyl-amine]"
14,1000 to 10000,"c1ccc(Nc2ccn3ncc(-c4cccs4)c3n2)cc1 [Example 242, Phenyl-(3-thiophen-2-yl-pyrazolo[1,5-a]pyrimidin-5-yl)-amine]"
15,< 1000,"CS(=O)(=O)Nc1cccc(-c2cnn3ccc(Nc4ccccc4)nc23)c1 [Example 243, N-[3-(5-Phenylamino-pyrazolo[1,5-a]pyrimidin-3-yl)-phenyl]-methanesulfonamide]"
16,< 1000,"Cn1cc(-c2cnn3ccc(Nc4ccccc4)nc23)cn1 [Example 244, [3-(1-Methyl-1H-pyrazol-4-yl)-pyrazolo[1,5-a]pyrimidin-5-yl]-phenyl-amine]"
17,1000 to 10000,"O=C(O)c1ccc(-c2cnn3ccc(Nc4ccccc4)nc23)cc1 [Example 248, 4-(5-Phenylamino-pyrazolo[1,5-a]pyrimidin-3-yl)-benzoic acid]"
18,1000 to 10000,"COc1cncc(-c2cnn3ccc(Nc4ccccc4)nc23)c1 [Example 251, [3-(5-Methoxy-pyridin-3-yl)-pyrazolo[1,5-a]pyrimidin-5-yl]-phenyl-amine]"
19,1000 to 10000,"COc1cc(-c2cnn3ccc(Nc4ccc(Oc5ccccc5)cc4)nc23)cc(OC)c1OC [Example 254, (4-Phenoxy-phenyl)-[3-(3,4,5-trimethoxy-phenyl)-pyrazolo[1,5-a]pyrimidin-5-yl]-amine]"
20,< 1000,"O=C(O)c1ccc(-c2cnn3ccc(Nc4ccc(Oc5ccccc5)cc4)nc23)cc1 [Example 255, 4-[5-(4-Phenoxy-phenylamino)-pyrazolo[1,5-a]pyrimidin-3-yl]-benzoic acid]"

row,IC50 [nM],SMILES
1,1000 to 10000,"COc1cc(-c2cnn3ccc(Nc4ccc(F)c(Cl)c4)nc23)cc(OC)c1OC [Example 259, (3-Chloro-4-fluoro-phenyl)-[3-(3,4,5-trimethoxy-phenyl)-pyrazolo[1,5-a]pyrimidin-5-yl]-amine]"
2,1000 to 10000,"CC(=O)c1cccc(-c2cnn3ccc(Nc4ccc(C(C)C)cc4)nc23)c1 [Example 266, 1-{3-[5-(4-Isopropyl-phenylamino)-pyrazolo[1,5-a]pyrimidin-3-yl]-phenyl}-ethanone]"
3,1000 to 10000,"Oc1cccc(-c2cnn3ccc(Nc4ccccc4)nc23)c1 [Example 271, 3-(5-Phenylamino-pyrazolo[1,5-a]pyrimidin-3-yl)-phenol]"
4,< 1000,"OCc1cccc(-c2cnn3ccc(Nc4ccccc4)nc23)c1 [Example 272, [3-(5-Phenylamino-pyrazolo[1,5-a]pyrimidin-3-yl)-phenyl]-methanol]"
5,1000 to 10000,"CC(C)c1ccc(Nc2ccn3ncc(-c4cccc(CO)c4)c3n2)cc1 [Example 275, {3-[5-(4-Isopropyl-phenylamino)-pyrazolo[1,5-a]pyrimidin-3-yl]-phenyl}-methanol]"
6,< 1000,"COc1cc(-c2cnn3ccc(Nc4ccc(C(C)C)cc4)nc23)ccc1O [Example 277, 4-[5-(4-Isopropyl-phenylamino)-pyrazolo[1,5-a]pyrimidin-3-yl]-2-methoxy-phenol]"
7,1000 to 10000,"c1ccc(Nc2ccn3ncc(-c4cccnc4)c3n2)cc1 [Example 278, Phenyl-(3-pyridin-3-yl-pyrazolo[1,5-a]pyrimidin-5-yl)-amine]"
8,1000 to 10000,"c1ccc(Nc2ccn3ncc(-c4ccsc4)c3n2)cc1 [Example 280, Phenyl-(3-thiophen-3-yl-pyrazolo[1,5-a]pyrimidin-5-yl)-amine]"
9,1000 to 10000,"Oc1ccc(-c2cnn3ccc(Nc4ccccc4)nc23)cc1 [Example 282, 4-(5-Phenylamino-pyrazolo[1,5-a]pyrimidin-3-yl)-phenol]"
10,1000 to 10000,"CC(=O)Nc1cccc(-c2cnn3ccc(Nc4ccccc4)nc23)c1 [Example 283, N-[3-(5-Phenylamino-pyrazolo[1,5-a]pyrimidin-3-yl)-phenyl]-acetamide]"
11,1000 to 10000,"c1cncc(CNc2ccn3ncc(-c4ccc5c(c4)OCO5)c3n2)c1 [Example 290, (3-Benzo[1,3]dioxol-5-yl-pyrazolo[1,5-a]pyrimidin-5-yl)-pyridin-3-ylmethyl-amine]"
12,1000 to 10000,"c1cncc(CNc2ccn3ncc(-c4ccsc4)c3n2)c1 [Example 291, Pyridin-3-ylmethyl-(3-thiophen-3-yl-pyrazolo[1,5-a]pyrimidin-5-yl)-amine]"
13,1000 to 10000,"COc1ccc(-c2cnn3ccc(NCc4cccnc4)nc23)cc1OC [Example 292, [3-(3,4-Dimethoxy-phenyl)-pyrazolo[1,5-a]pyrimidin-5-yl]-pyridin-3-ylmethyl-amine]"
14,1000 to 10000,"Oc1ccc(-c2cnn3ccc(NCc4cccnc4)nc23)cc1 [Example 293, 4-{5-[(Pyridin-3-ylmethyl)-amino]-pyrazolo[1,5-a]pyrimidin-3-yl}-phenol]"
15,< 1000,"COc1cc(-c2cnn3ccc(Nc4cccc(Cl)c4)nc23)cc(OC)c1OC [Example 306, (3-Chloro-phenyl)-[3-(3,4,5-trimethoxy-phenyl)-pyrazolo[1,5-a]pyrimidin-5-yl]-amine]"
16,1000 to 10000,"Oc1cccc(-c2cnn3ccc(Nc4cccc(Cl)c4)nc23)c1 [Example 311, 3-[5-(3-Chloro-phenylamino)-pyrazolo[1,5-a]pyrimidin-3-yl]-phenol]"
17,1000 to 10000,"OCc1cccc(-c2cnn3ccc(Nc4cccc(Cl)c4)nc23)c1 [Example 312, {3-[5-(3-Chloro-phenylamino)-pyrazolo[1,5-a]pyrimidin-3-yl]-phenyl}-methanol]"
18,1000 to 10000,"COc1cc(-c2cnn3ccc(Nc4cccc(Cl)c4)nc23)ccc1O [Example 314, 4-[5-(3-Chloro-phenylamino)-pyrazolo[1,5-a]pyrimidin-3-yl]-2-methoxy-phenol]"
19,1000 to 10000,"Cc1ccc(S(=O)(=O)Nc2ccc(Nc3ccn4ncc(-c5ccc(C(=O)NCCN(C)C)cc5)c4n3)cc2)cc1 [Example 320, N-(2-Dimethylamino-ethyl)-4-{5-[4-(toluene-4-sulfonylamino)-phenylamino]-pyrazolo[1,5-a]pyrimidin-3-yl}-benzamide]"
20,1000 to 10000,"CN(C)CCNC(=O)c1cccc(-c2cnn3ccc(Nc4ccc(O)cc4)nc23)c1 [Example 326, N-(2-Dimethylamino-ethyl)-3-[5-(4-hydroxy-phenylamino)-pyrazolo[1,5-a]pyrimidin-3-yl]-benzamide]"
